Target: GLP-1R (Homo sapiens, UniProt P43220)
Assay: Agonist activity on GLP-1R, HTRF cAMP detection in stably transfected GLP-1R/HEK293 cells
Assay type: cell-based
Settings: for EC50: 30 min incubation; for Max activity: relative to top concentration of reference GLP-1(7-37)
Procedure: Detection of Agonist Activity of the Test Compounds on GLP-1R
• 1) The test compound was dissolved in DMSO and diluted 4-fold with Bravo for a total of 10 concentration gradients (the starting concentration was 1 mM). […] HBSS (10 mL) pre-warmed at 37° C. was added, mixed gently, and centrifuged at 1000 rpm for 5 minutes. The supernatant was discarded and another 10 mL of […] was added and mixed gently. […] The plate was shaken to mix at 2000 rpm for 60 seconds. • 7) The cells in the 384-well plate were incubated in CO2 cell incubator at 37° C. for 30 min. • 8) 10 μL of HTRF cAMP detection solution was added to the 384-well plate, stick with sealing film, and incubated at room temperature for 1 hour. • 9) After 1 hour of incubation, the sealing film was removed. The plate was put into the EnVision microplate reader to read the values of OD665 nm and OD615 nm.

Sequence of GLP-1R (P43220 24-463): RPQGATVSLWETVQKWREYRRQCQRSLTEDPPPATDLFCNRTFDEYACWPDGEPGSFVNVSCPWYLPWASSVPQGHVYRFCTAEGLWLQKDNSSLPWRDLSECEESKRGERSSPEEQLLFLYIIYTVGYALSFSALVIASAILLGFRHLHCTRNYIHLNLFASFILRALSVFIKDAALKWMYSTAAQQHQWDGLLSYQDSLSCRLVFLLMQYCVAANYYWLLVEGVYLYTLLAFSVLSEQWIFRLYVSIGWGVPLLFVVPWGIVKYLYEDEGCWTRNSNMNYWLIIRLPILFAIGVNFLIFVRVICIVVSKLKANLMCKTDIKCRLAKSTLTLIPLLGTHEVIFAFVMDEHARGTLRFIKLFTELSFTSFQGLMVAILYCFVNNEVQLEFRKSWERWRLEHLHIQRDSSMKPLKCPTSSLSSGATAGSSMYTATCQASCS

Structure (SMILES) | EC50 [nM] | Max activity [%]
N#CCC1(Cn2c(CN3CCC(Oc4cccc(CSc5ccc(Cl)cc5F)n4)CC3)nc3ccc(C(=O)O)cc32)CC1 [Compound C7, 2-((4-((6-((4-chloro-2-fluorophenylthio)methyl)pyridin-2-yl)oxy)piperidin-1-yl)methyl)-1-((1-(cyanomethyl)cyclopropyl)methyl)-1H-benzo[d]imidazole-6-carboxylic acid] | 23.5 | 90.1
CCn1cncc1Cn1c(CN2CCC(Oc3cccc(COc4ccc(Cl)cc4F)n3)CC2)nc2ccc(C(=O)O)cc21 [Compound 43, 2-((4-((6-((4-chloro-2-fluorophenoxy)methyl)pyridin-2-yl)oxy)piperidin-1-yl)methyl)-1-((1-ethyl-1H-imidazol-5-yl)methyl)-1H-benzo[d]imidazole-6-carboxylic acid] | 0.11 | 109.7
O=C(O)/C=C/c1ccc2nc(CN3CCC(Oc4ccc(F)c(OCc5ccc(Cl)cc5F)n4)CC3)n(C[C@@H]3CCO3)c2c1 [Compound S36] | 150 | 114.2
O=C(O)c1ccc2nc(CN3CCC(Oc4cccc(CSc5ccc(Cl)cc5F)n4)CC3)n(C[C@@H]3CCO3)c2c1 [Compound C8] | 25.6 | 117.4
N#Cc1ccc(COc2cccc(COC3CCN(Cc4nc5ccc(C(=O)O)cc5n4C[C@@H]4CCO4)CC3)n2)c(F)c1 [Compound S22, (S)-2-((4-((6-((4-cyano-2-fluorobenzyl)oxy)pyridin-2-yl)methoxy)piperidin-1-yl)methyl)-1-(oxetan-2-ylmethyl)-1H-benzo[d]imidazole-6-carboxylic acid] | 731 | 92.7
CCn1cncc1Cn1c(CN2CCC(Oc3cccc(COc4ccc(Cl)cc4F)c3)CC2)nc2ccc(C(=O)O)cc21 [Compound 7, 2-((4-(3-((4-chloro-2-fluorophenoxy)methyl)phenoxy)piperidin-1-yl)methyl)-1-((1-ethyl-1H-imidazol-5-yl)methyl)-1H-benzo[d]imidazole-6-carboxylic acid] | 0.145 | 91.3
O=C(O)c1ccc2nc(CN3CCC(Oc4cccc(COc5ccc(Br)cc5F)n4)CC3)n(Cc3cncn3CC3CC3)c2c1 [Compound C19, 2-((4-((6-((4-bromo-2-fluorophenoxy)methyl)pyridin-2-yl)oxy)piperidin-1-yl)methyl)-1-((1-(cyclopropylmethyl)-1H-imidazol-5-yl)methyl)-1H-benzo[d]imidazole-6-carboxylicacid] | 1.07 | 134.3
N#CCC1(Cn2c(CN3CCC(Oc4ccc(F)c(OCc5ccc(Cl)cc5F)n4)CC3)nc3c(F)cc(C(=O)O)cc32)CC1 [Compound S41, 2-((4-((6-((4-chloro-2-fluorobenzyl)oxy)-5-fluoropyridin-2-yl)oxy)piperidin-1-yl)methyl)-1-((1-(cyanomethyl)cyclopropyl)methyl)-4-fluoro-1H-benzo[d]imidazole-6-carboxylic acid] | 21.7 | 94.8
Cn1c(CN2CCC(Oc3cccc(COc4ccc(Cl)cc4F)n3)CC2)nc2ccc(C(=O)O)cc21 [Compound C22, 2-((4-((6-((4-chloro-2-fluorophenoxy)methyl)pyridin-2-yl)oxy)piperidin-1-yl)methyl)-1-methyl-1H-benzo[d]imidazole-6-carboxylic acid] | 30.4 | 
N#Cc1ccc(OCc2cccc(OC3CCN(Cc4nc5ccc(C(=O)O)cc5n4CC4COC4)CC3)n2)c(F)c1 [Compound C82, 2-((4-((6-((4-cyano-2-fluorophenoxy)methyl)pyridin-2-yl)oxy)piperidin-1-yl)methyl)-1-(oxetan-3-ylmethyl)-1H-benzo[d]imidazole-6-carboxylic acid] | 7.48 | 90.7
CCn1nc(C)cc1Cn1c(CN2CCC(Oc3cccc(COc4ccc(C#N)cc4F)n3)CC2)nc2ccc(C(=O)O)cc21 [Compound C40, 2-((4-((6-((4-cyano-2-fluorophenoxy)methyl)pyridin-2-yl)oxy)piperidin-1-yl)methyl)-1-((1-ethyl-3-methyl-1H-pyrazol-5-yl)methyl)-1H-benzo[d]imidazole-6-carboxylic acid] | 6.5 | 90.7
CCn1cncc1Cn1c(CN2CCC(Oc3cccc(COc4ccc(Br)cc4F)n3)CC2)nc2ccc(C(=O)O)cc21 [Compound C3, 2-((4-((6-((4-bromo-2-fluorophenoxy)methyl)pyridin-2-yl)oxy)piperidin-1-yl)methyl)-1-((1-ethyl-1H-imidazol-5-yl)methyl)-1H-benzo[d]imidazole-6-carboxylic acid] | 0.278 | 122.3
N#CCC1(Cn2c(CN3CCC(Oc4cccc(COc5ccc(Br)cc5F)n4)CC3)nc3ccc(C(=O)O)cc32)CC1 [Compound C26, 2-((4-((6-((4-bromo-2-fluorophenoxy)methyl)pyridin-2-yl)oxy)piperidin-1-yl)methyl)-1-((1-(cyanomethyl)cyclopropyl)methyl)-1H-benzo[d]imidazole-6-carboxylic acid] | 0.215 | 117.3
CC(C)n1cncc1Cn1c(CN2CCC(Oc3cccc(COc4ccc(C#N)cc4F)c3)CC2)nc2ccc(C(=O)O)cc21 [Compound C32] | 0.768 | 114.3
N#Cc1ccc(COc2cccc(Oc3cc(F)c(Cc4nc5c(F)cc(C(=O)O)cc5n4C[C@@H]4CCO4)cc3F)n2)c(F)c1 [Compound C43, (S)-2-(4-((6-((4-cyano-2-fluorobenzyl)oxy)pyridin-2-yl)oxy)-2,5-difluorobenzyl)-4-fluoro-1-(oxetan-2-ylmethyl)-1H-benzo[d]imidazole-6-carboxylic acid] | 5.31 | 88.8
CCn1cncc1Cn1c(CN2CCC(Oc3cccc(CSc4ccc(Cl)cc4F)n3)CC2)nc2ccc(C(=O)O)cc21 [Compound C9] | 3.74 | 97.2
CCn1cncc1Cn1c(CN2CCC(Oc3cccc(OCc4ccc(C#N)cc4F)n3)CC2)nc2ccc(/C=C/C(=O)O)cc21 [Compound C2, (E)-3-(2-((4-((6-((4-cyano-2-fluorobenzyl)oxy)pyridin-2-yl)oxy)piperidin-1-yl)methyl)-1-((1-ethyl-1H-imidazol-5-yl)methyl)-1H-benzo[d]imidazol-6-yl)acrylic acid] | 0.614 | 123.1
N#Cc1ccc(OCc2cccc(OC3CCN(Cc4nc5ccc(C(=O)O)cc5n4Cc4cncn4CC4CC4)CC3)c2)c(F)c1 [Compound C20, 2-((4-(3-((4-cyano-2-fluorophenoxy)methyl)phenoxy)piperidin-1-yl)methyl)-1-((1-(cyclopropylmethyl)-1H-imidazol-5-yl)methyl)-1H-benzo[d]imidazole-6-carboxylic acid] | 0.425 | 137.0
CCn1cncc1Cn1c(CN2CCC(Oc3cccc(COc4ccc(C#N)cc4F)n3)CC2)nc2ccc(C(=O)O)cc21 [Compound 1, 2-((4-((6-((4-cyano-2-fluorophenoxy)methyl)pyridin-2-yl)oxy)piperidin-1-yl)methyl)-1-((1-ethyl-1H-imidazol-5-yl)methyl)-1H-benzo[d]imidazole-6-carboxylic acid] | 0.088 | 116.8
